Reference: US20030144345A1, “Treatment of metabolic diseases with soraphen derivatives” (priority 2001, published 2003)

Experiments:
human ACCβ enzyme = target: T1, human ACCβ enzyme (Homo sapiens, UniProt O00763); assay: Human ACCβ enzyme activity / inhibition assay (radiometric); assay type: biochemical; conditions: for Effect on K0.5 of K-citrate / Effect on Vmax of the ACC enzyme reaction: titration of compound at 0.5, 1 and 2 times IC50
T1 construct: The cloning of the full length human muscle-type ACCβ cDNA and expression in HEK293 cells; made in house; host or cells: HEK293 cells (ATCC CRL-1573), plasmid pRF33D
Experimental: The cloning of the full length human muscle-type ACCβ cDNA and expression in HEK293 cells (ATCC, #CRL-1573) was performed as follows. The ACCβ cDNA was amplified by the polymerase chain reaction (PCR) and was cloned using standard recombinant DNA techniques. The PCR reaction was performed with the Expand Long Template PCR System (Roche Molecular Biochemicals, #1 681 8340) and 0.5 ng of cDNA from human skeletal muscle as template. The primers used for PCR amplification were designed on the basis of the published sequence of the human ACCβ cDNA isolated from a human liver cDNA library (Abul-Elheiga et al. J. Biol Chem. 272, 10669-10677, 1997). The sequence of the forward primer ACCB1 was 5′-[…]-3′; it includes a NheI restriction cleavage site for subcloning and a Kozak translation initiation consensus sequence preceding the ATG start codon. The sequence of the reverse primer ACCB8 was 5′-[…]-3′; it includes a stop codon and a XhoI restriction cleavage site for subcloning. The amplified DNA fragment of approximately 7.4 kb was cloned into a mammalian expression vector. The resulting plasmid isolates, pRF33A, B, C, D, and E were individually transfected in human embryonic kidney 293 cells (HEK293) using a standard lipid transfection method. Cell extracts of transfected cells were prepared in a lysis buffer containing 0.4 mg/ml digitonin and enzyme activity was determined using a radiometric ACC activity assay as described below. Plasmid pRF33D gave the highest activity and was chosen for large scale transfections of HEK293 cells and enzyme purification.
Since ACC enzyme activities in crude cell lysates were very low, enrichment of ACCβ enzyme expressed in HEK293 cells was achieved by a single anion exchange chromatography step. Cell lysates were run over a 5 ml Econo Pac High Q column (Bio-Rad, #732-0027). Bound proteins were eluted by a gradient of NaCl from 0 to 1 M in 50 mM Tris-HCl, pH 7.5, 1 mM DTT, 5% glycerol. Fractions containing high ACCβ enzyme activity were pooled and stored at −20° C.
Standard ACCβ enzyme assays, in a total volume of 100 μl, contained 50 mM HEPES-KOH, pH 7.5, 10 mM K-citrate, 10 mM MgSO4, 1 mM ATP, 0.1 mM DTT, 2% DMSO, 0.1 mg/ml fatty acid-free BSA, 0.2 mM acetyl-CoA, 2 mM KHCO3, 0.2 mM [^14C]NaHCO3 (50-60 mCi/mmol) and cell lysate or purified ACCβ enzyme. Reactions were incubated at 37° C. for 45 min. and stopped by the addition of 50 μl of 2 N HCl. Terminated reactions were incubated at 50° C. over night to evaporate non-incorporated [^14C]NaHCO3. [^14C]-labeled malonyl-CoA reaction product was quantitated by liquid scintillation counting after the addition of 20 μl of Microscint 20 (Canberra Packard, #6013621) on a TopCount NXT microplate scintillation counter (Canberra Packard).
Inhibition of ACCβ activity was determined at saturating substrate concentrations with two-fold serial dilutions of test compounds spanning a concentration range of at least two log units. IC50 values were calculated with the GraFit software (Erithacus Software Ltd.). Kinetic parameters (Km, Vmax and K0.5) were determined by varying one substrate (or allosteric effector) in a two-fold serial dilution over a concentration range of at least two log units while keeping all other substrates at constant saturating concentrations. Fitting to the Michaelis-Menten equation (for calculation of Km of substrates) and fitting to the Hill equation (for calculation of K0.5of the allosteric activator K-citrate) was done with the GraFit software. To determine the mode of action of Soraphens, determinations of Km for ATP and acetyl-CoA and of K0.5 for K-citrate were repeated in the absence and in the presence of the three different Soraphens at 0.5, 1 and 2 times their IC50 and the data were fitted to the equation for non-competitive inhibition with the GraFit software.

differentiated L6 cells = assay: Fatty acid (palmitate) oxidation assay with differentiated rat L6 muscle cells;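 note: differentiated rat L6 myotubes fed [14C]-palmitate, with oxidation read as 14CO2 trapped on filters and counted by liquid scintillation after 3 to 8 h at 37 °C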
Experimental: Labeling medium to assay oxidation of fatty acids was composed of glucose-deficient DMEM containing 3.7 g/l NaHCO3, 25 mM HEPES-NaOH, 0.5% fatty acid-free bovine serum albumin (BSA), 0.1% ethanol, 0.5% DMSO (or test compounds dissolved in DMSO), 5 mM D-glucose, and 16 μM unlabeled palmitate plus 0.25 μM [U-^14C]palmitate (approx. 800 mCi/mmol). After the addition of labeling medium, the cell culture plates were sealed air tight with self adhesive Super Sealing Film (Life Systems Design, #02-2796-3001). Before sealing, twelve 1 cm^2 squares of filter paper (Schleicher & Schuell, #GB004) pretreated with 50 μl of highly basic tissue solubilizer solution NCSII (Amersham Pharmacia, #NNCS-502) were attached to the lower side of the sealing film. Upon sealing of the tissue culture plates, the filters were positioned in the center above each well, and served to capture the evolving ^14CO2 that was produced by the cells in each individual well. After an incubation between 3 to 8 hours at 37° C., the filters were removed from the sealing film and the captured ^14CO2 was quantitated by liquid scintillation counting with 2 ml of scintillation cocktail BCS-NA (Amersham Pharmacia, #NBCS204) in a Tri-Carb liquid scintillation counter (Canberra Packard).
Cultivation of the differentiating rat muscle cell line L6 for fatty acid oxidation assays was performed as follows. For routine passaging, L6 cells (ATCC) were grown in T75 flasks in 15 ml of MEM Alpha medium (Gibco BRL Life Technologies, #22571-038), containing 10% heat inactivated FBS and 1% antibiotic/antimycotic solution (Gibco BRL Life Technologies, #15240-062). Incubation was done at 37° C. in a humid atmosphere containing 5% CO2. The cells were passaged twice per week by trypsinization.
For fatty acid oxidation assays, each well of a 12-well tissue culture plate was seeded with 2 to 5×10^4 cells in 1 ml of MEM Alpha, 10% FBS, 1% antibiotic/antimycotic solution. After 3 days, medium was exchanged by 1 ml of the same, fresh medium. After 5 days, medium was exchanged again, this time by 1 ml of medium containing 2% FBS, 1% antibiotic/antimycotic solution. After 7 days, the cells were fully differentiated and formed large multinucleated myotubes. At this stage, the medium was replaced by 1 ml of glucose-deficient DMEM supplemented with 3.7 g/l NaHCO3 and 25 mM HEPES-NaOH followed by a starvation period of 2 to 6 hours at 37° C. […] The compounds were tested at three different concentrations (2, 0.2 and 0.02 μM) on differentiated L6 cells.

[1] = L6, repeated test Table 3, 0.002 μM
[2] = L6, repeated test Table 3, 0.02 μM
[3] = L6, repeated test Table 3, 0.2 μM

T1 sequence (O00763 whole entry): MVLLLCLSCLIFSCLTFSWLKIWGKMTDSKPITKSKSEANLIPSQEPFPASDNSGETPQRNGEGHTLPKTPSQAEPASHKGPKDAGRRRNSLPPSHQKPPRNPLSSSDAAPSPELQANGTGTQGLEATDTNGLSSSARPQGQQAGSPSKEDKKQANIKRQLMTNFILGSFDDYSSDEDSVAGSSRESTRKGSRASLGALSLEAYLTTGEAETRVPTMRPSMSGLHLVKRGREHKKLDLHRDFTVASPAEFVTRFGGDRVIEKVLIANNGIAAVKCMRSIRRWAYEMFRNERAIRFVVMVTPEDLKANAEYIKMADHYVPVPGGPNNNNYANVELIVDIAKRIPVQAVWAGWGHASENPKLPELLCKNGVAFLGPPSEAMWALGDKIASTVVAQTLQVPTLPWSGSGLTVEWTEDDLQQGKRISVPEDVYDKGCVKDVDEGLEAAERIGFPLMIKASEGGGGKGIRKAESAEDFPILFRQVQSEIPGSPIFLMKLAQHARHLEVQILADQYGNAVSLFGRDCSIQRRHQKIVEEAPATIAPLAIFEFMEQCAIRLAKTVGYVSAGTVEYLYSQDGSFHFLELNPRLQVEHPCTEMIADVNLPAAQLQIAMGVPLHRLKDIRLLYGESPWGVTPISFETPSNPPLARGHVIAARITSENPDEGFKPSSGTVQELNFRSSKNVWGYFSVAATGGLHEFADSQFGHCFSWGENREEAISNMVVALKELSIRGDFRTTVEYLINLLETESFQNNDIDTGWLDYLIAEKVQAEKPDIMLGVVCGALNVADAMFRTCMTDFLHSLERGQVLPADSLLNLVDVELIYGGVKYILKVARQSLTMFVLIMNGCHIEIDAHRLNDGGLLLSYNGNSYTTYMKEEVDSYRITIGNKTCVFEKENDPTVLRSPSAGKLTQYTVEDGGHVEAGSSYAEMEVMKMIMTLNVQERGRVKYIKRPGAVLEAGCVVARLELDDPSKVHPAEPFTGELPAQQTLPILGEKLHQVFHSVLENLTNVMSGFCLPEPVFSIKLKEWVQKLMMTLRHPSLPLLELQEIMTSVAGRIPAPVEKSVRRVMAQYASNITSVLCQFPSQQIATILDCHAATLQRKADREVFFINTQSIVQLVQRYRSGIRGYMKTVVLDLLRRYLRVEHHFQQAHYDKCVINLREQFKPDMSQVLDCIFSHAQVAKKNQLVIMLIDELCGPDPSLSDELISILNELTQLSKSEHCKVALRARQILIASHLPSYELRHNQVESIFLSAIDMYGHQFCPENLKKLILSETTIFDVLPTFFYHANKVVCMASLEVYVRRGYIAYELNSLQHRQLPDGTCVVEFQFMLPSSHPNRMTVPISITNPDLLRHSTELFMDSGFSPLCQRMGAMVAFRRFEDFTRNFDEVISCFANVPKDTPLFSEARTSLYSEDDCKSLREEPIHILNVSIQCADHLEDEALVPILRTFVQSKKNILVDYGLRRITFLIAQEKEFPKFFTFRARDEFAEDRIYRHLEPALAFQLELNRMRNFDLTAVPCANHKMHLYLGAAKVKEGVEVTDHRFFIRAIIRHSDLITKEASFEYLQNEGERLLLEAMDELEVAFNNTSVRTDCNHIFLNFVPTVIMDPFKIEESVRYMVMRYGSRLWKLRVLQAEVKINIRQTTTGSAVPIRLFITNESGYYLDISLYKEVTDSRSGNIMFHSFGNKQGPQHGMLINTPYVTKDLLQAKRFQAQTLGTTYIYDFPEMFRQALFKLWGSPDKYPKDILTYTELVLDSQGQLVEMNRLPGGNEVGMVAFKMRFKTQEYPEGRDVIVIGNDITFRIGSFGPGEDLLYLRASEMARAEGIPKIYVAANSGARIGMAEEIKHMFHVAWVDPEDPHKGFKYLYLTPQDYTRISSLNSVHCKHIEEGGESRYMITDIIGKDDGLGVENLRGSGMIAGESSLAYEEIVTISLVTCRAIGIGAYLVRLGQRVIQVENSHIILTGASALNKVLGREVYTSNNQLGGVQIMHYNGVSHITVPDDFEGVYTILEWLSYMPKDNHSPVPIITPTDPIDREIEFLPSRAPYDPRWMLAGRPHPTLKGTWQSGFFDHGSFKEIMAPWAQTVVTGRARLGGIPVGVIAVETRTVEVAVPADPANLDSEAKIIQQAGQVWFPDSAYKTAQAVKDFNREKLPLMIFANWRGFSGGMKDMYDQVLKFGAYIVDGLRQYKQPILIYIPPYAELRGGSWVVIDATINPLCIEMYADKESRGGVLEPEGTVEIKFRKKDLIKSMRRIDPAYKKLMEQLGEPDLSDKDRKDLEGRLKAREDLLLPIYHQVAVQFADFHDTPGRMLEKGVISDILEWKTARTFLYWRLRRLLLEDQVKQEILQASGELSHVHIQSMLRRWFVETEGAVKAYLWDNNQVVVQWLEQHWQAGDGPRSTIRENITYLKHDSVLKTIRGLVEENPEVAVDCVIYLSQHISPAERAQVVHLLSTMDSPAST

## CO[C@H]1CCCC[C@@H](c2ccccc2)OC(=O)[C@@H](C)C2(O)O[C@H]([C@@H](C)[C@H](O)[C@H]2OC)[C@@H](C)/C=C/[C@H]1OC [Cpd (Ia), Soraphen A 1-α]
Human ACCβ enzyme
  IC50: 3 nM
  Effect on K0.5 of K-citrate: did not change
  Effect on Vmax of the ACC enzyme reaction: dose-dependent decrease
Human ACCβ enzyme; listed as Soraphen A 1-α
  Effect on K0.5 of K-citrate: little effect
  Effect on Vmax of the ACC enzyme reaction: reduced
Differentiated L6 cells; L6, Table 2, 0.02 μM
  Fold stimulation: 1.8 fold
  Palmitate oxidation rate: 16.4 +/− 1.0 pmol · h^−1 · well^−1
Differentiated L6 cells; L6, Table 2, 0.2 μM
  Fold stimulation: 1.8 fold
  Palmitate oxidation rate: 15.8 +/− 0.5 pmol · h^−1 · well^−1
Differentiated L6 cells; L6, Table 2, 2 μM
  Fold stimulation: 1.7 fold
  Palmitate oxidation rate: 14.9 +/− 0.4 pmol · h^−1 · well^−1
Differentiated L6 cells; [1]
  Fold stimulation: 1.5 fold
  Palmitate oxidation rate: 8.3 +/− 0.0 pmol · h^−1 · well^−1
Differentiated L6 cells; [2]
  Fold stimulation: 2.2 fold
  Palmitate oxidation rate: 12.1 +/− 1.0 pmol · h^−1 · well^−1
Differentiated L6 cells; [3]
  Fold stimulation: 2.7 fold
  Palmitate oxidation rate: 14.6 +/− 0.1 pmol · h^−1 · well^−1
Differentiated L6 cells; Rattus norvegicus, L6, read-out: EC50 for stimulation of palmitate oxidation
  EC50: 2 to 20 nM
